# Ends that are not written are not given here. Peptide text beside a SMILES is read from it. * marks the point of attachment. BODIPYFLEthylmaleimide = Cc1cc(C)n2c1C=C1C=CC(CCC(=O)NCCN3C(=O)CC(*)C3=O)=[N+]1[B-]2(F)F; BODIPY = not defined here; Cam = NC(=O)C*
# How the values were obtained:
# [1] = Cytotoxicity of NLM-DR derived peptides (MTS, FACS, microscope), Table 2
# [2] = tested on: human retinoblastoma cell lines Y79; assay: Cell death assay (MTS) in retinoblastoma cell line Y79; assay type: cell-based; details: for Y79 cells died: 5 μM concentration, longer treatment (FIG. 8C); for Induction of Y79 cell death: 3 hours, various concentrations, peptides without BODIPY
# Protocol: Rb cell line Y79 were treated with various concentration of the Ant-CC2 (WT) (filled squares) or Ant-CC2 (Mu) (open squares) (A), or Ant-LZ (WT) (filled circles), or Ant-LZ (Mu) (open circles) (B), or Ant peptide (open triangle) (C) for 3 hours (A, B) or 16 hours (C). Cell survival was then evaluated using the MTS assay as described in “Materials and methods”
# The detection of cell death was performed using the MTS assay provided by Promega (CellTiter 96® AQueous one solution cell proliferation assay). Briefly, 0.3×10^6 Y79 cells in 450 μl were treated with 50 μl of the wild type Ant-CC2 and Ant-LZ peptides (0.1 to 20 μM) or their mutants Ant-CC2 (Mu), Ant-LZ (Mu) or the Ant or left untreated in serum-free RPMI medium at 37° C. After an incubation of […], an aliquot of the cell suspension (200 μl, 0.12×10^6 cells), was then transferee in 96-well plates and mixed with the MTS solution (40 μl) containing the MTS compound and the phenazine ethosulfate. Two hours after, the quantity of formazan produced by viable cells was measured using an automated microplate reader (Bio-TeK Instruments, INC) at 490 nm absorbance. Cell survival was observed under microscope and was estimated as a percentage of the value of untreated controls. The background of the reaction was determined by mixing the MTS solution with cell-free RPMI medium. To increase the sensitivity of the cell death assay, the present inventors used peptides devoid of BODIPY-labeling because the absorption spectra of the fluorophor overlaps with that of the formazan product. All experiments were repeated twice and each experiment condition was repeated in duplicate wells in each experiment.
# [3] = tested on: LPS-induced NF-κB activation; assay: NF-κB inhibition assay, first procedure: LPS-induced NF-κB dependent β-galactosidase reporter in 70Z/3-C3 cells; assay type: cell-based, murine; details: for LPS-induced NF-κB activation in presence of peptide: 20 μM peptide 2 h, LPS (3 μg/ml) 5 h, 70Z3-C3 cells
# Protocol: The resulting cell line, 70Z3-C3, was incubated for 2 hours in the absence or in the presence of 20 μM of antennapedia peptide (Ant), or BODIPY-labeled antennapedia peptide (BODIPY-Ant), or BODIPY-labeled antennapedia peptide coupled to CC2 (BODIPY-Ant-CC2) or LZ (BODIPY-Ant-LZ) peptides, After peptide internalization, cells were treated for 5 hours with LPS (3 μg/ml, (+) in left panel) or untreated (right panel and (−) in left panel) and the NF-κB activity was measured by β-galactosidase assay. Error bars represent the standard deviation of three separate experiments. (B) Concentration dependence of inhibition of LPS-induced NF-κB activation by BODIPY-Ant-CC2 peptide (left panel) or BODIPY-Ant-LZ peptide (right panel). Cells were treated as in (A) but with different concentration of peptide as indicated. The potential of each peptide to inhibit LPS-induced NF-κB activation was measured by determining the IC50 value that correspond to 50% inhibition of LPS-induced NF-κB activation as compared to the control (no peptide) (C). (D) Effect of the N-fusion sequence of antennapedia on the inhibition of NF-κB activation. Control (no peptide) or CC2, or LZ peptides, with (BODIPY-ANT-CC2, BODIPY-ANT-LZ) or without the antennapedia sequence at the N-terminus (CC2, LZ) were incubated for 2 hours with 70Z3-C3 cells followed with (+) or without (−) the LPS-treatment for 3 hours. NF-κB activity was then measured by β-galactosidase assay.
# In a first procedure 2.2×10^5 70Z/3-C3 cells in 220 μl of RPMI 1640 supplemented with 10% fetal calf serum (FCS) and 50 μM β-mercaptoethanol were placed in a 96-well plate and incubated with various concentrations of peptide (0 to 20 μM) at 37° C. in 5% CO2 incubator. After two hours an equal portion (100 μl) of each cell sample transferred in two wells containing each 10^5 cells. One aliquot of cells was then treated for 5 hours with lipopolysaccharides from Salmonella abortus (Sigma) at 0.5 μg/ml final concentration, and the other one left-treated. After 5 hours, cells were centrifuged at 400×g for 5 min at room temperature and the cell pellets were washed three times with cold PBS (250 μl) by centrifugation. Cells were then lysed in the lysis buffer (25 mM tris-phosphate buffer at pH 7.8 containing 8 mM magnesium chloride, 1 mM dithioerythreitol, 1% Triton X-100, 15% glycerol and a protease inhibitor mixture (Roche)), and samples were centrifuged at 4° C. for 20 min to clarify the lysate. The supernatant was then kept on ice, and 30 μl was then assayed to measure the β-galactosidase activity with a plate luminometer (Berthold) using the GALACTON-STAR™ as chemiluminescent substrate (BD Biosciences Clontech, Bronstein et al., 1989). Background of reaction was measured by mixing for 1 hour 30 μl of lysis buffer with the reaction buffer (196 μl) and the GALACTON-STAR™ substrate (4 μl) provided by BD Biosciences. In a second procedure and a more stringent assay, 70Z/3-C3 cells (2.2×105 in 220 μl medium) were centrifuged at 400×g at room temperature after peptide internalization for 2 hours, and cell pellets were washed three times with 200 μl of PBS by centrifugation. Cells were then diluted three times with complete medium, and allowed to grow for at least 24 hours. The following steps are identical to the first procedure.
# To analyze the inhibition potential of LPS-induced NF-κB activation by cell permeable BODIPY-Ant-CC2 and BODIPY-Ant-LZ peptides, the present inventors stably transfected the murine pre-B 70Z3 cell line with p12XlacZ-kB, which bears the β-galactosidase reporter gene under the control of the NF-κB transcription factor.
# [4] = tested on: LPS-induced NF-κB activation; assay: More stringent NF-κB inhibition assay, second procedure: peptide internalization, washing, 24 h growth, then LPS; assay type: cell-based, murine; details: 10 μM peptide
# Source text: Left panels show a helical wheel diagram of CC2 (A) and LZ (B) peptides. The view is from the top the molecule. The (a) through (g) positions, which are an essential feature of coiled coil sequence (Vinson, 2002, Mol. Cell. Biol.) represent sequential positions in each peptide sequence. The first (a) and fourth (d) positions that are generally occupied by hydrophobic amino acids constitute the hydrophobic core for parallel as well as antiparallel-coiled coils. Mutations that were introduced in (a) positions of the CC2 variant (BODIPY-Ant-CC2 (Mu); shown as residues 6-40 of SEQ ID NO:3, with glycine mutations corresponding to residues 6-40 of SEQ ID NO:5) or in (d) positions of the LZ variant (BODIPY-Ant-(Mu) are shown. In the right panels, 70Z3-C3 cells were incubated for 2 hours in the absence (control) or in the presence of 10 μM of cell permeable wild type (BODIPY-Ant-CC2 (WT)) or mutant (BODIPY-Ant-CC2 (Mu)) CC2 peptides (A) or wild type (BODIPY-Ant-LZ (WT)) or mutant (BODIPY-Ant-(Mu)) LZ peptides (B). The cells were then extensively washed to remove the excess peptide which had not been internalized and the cells were then diluted three times and allowed to grow for 24 hours before treatment for 5 hours with (+) or without LPS (−). NF-κB activity was measured using the β-galactosidase assay. Error bars represent the standard deviation of two independent experiments.
# (A) Sequence alignment of the NEMO-derived LZ (residues 301-336 of SEQ ID NO: 12) and the GCN4 peptides (residues 23-55 of SEQ ID NO:8). Both coiled-coil motifs were aligned using clustalX. Identical and similar amino acid residues (shaded) are indicated by (!) or (*), respectively. (B) Overview and helical wheel diagram of the GCN4 coiled-coil (top view). The amino-acid sequence of GCN4 is shown with its corresponding [a-g] positions and residues that differ from the corresponding NEMO-derived LZ sequence are boxed according to their degree of conservation. Identical (open square) and similar residues (open triangle) are indicated. […] NF-κB activity was measured using the b-galactosidase assay. […]
# [5] = Analytical gel filtration, oligomeric states of peptides; assay type: physicochemical; details: 10 μM, Superdex 75, buffer with 0.1 mM DDM
# Protocol: All peptides were loaded at a 10 μM concentration on a superdex 75 HR10/30 column equilibrated in a buffer containing 0.1 mM DDM to improve recovery (see “Materials and methods”). Chromatographic profiles of the CC2 mutant (dashed line) and the CC2 wild type (solid line) fused (BODIPY-Ant-CC2 (WT), BODIPY-Ant-CC2 (Mu), or not fused to the antennapedia sequence (CC2 (WT), CC2 (Mu)) are shown in left panels, and elution profiles of the LZ mutant (dashed line) and the wild type (solid line) fused (BODIPY-Ant-LZ (WT), BODIPY-Ant-LZ (Mu), or not fused to the antennapedia sequence (LZ (WT), LZ (Mu)) are represented in right panels. Elution volumes of globular protein markers are indicated by arrows: Oval, ovalbumin (43 kDa); Chym, chymotrypsinogene A (25 kDa); Ribo, Ribonuclease (13.4 kDa) and Apro, aprotinin (6.5 kDa).
# The oligomeric states of peptides were determined by filtration as described in Traincard et al., 2003. In brief, 500 μl samples were loaded on a SUPERDEX™ 75 HR 10/30 column equilibrated in 50 mM Tris-HCl pH 8.0 containing 200 mM NaCl and 0.1 mM DDM, at a constant flow rate of 0.4 ml/min. The presence of the DDM detergent was added in the equilibrium buffer to minimize the adsorption in the column and to increase the peptide recovery. The column was calibrated in the same equilibrium buffer with blue dextran 2000 (void volume), dithioerythritol (total volume), bovine serum albumin (67 kDa, Rs=35.2 Å), ovalbumine (43 kDa, Rs=27.5 Å), chymotrypsinogen A (25 kDa, Rs=21.1 Å), ribonuclease A (13.7 kDa, Rs=16.4 Å), cytochrome C (12.4 kDa, Rs=17.7 Å) and aprotinin (6.5 KDa, Rs=13.5 Å).
compound,measurement,setting,value
CC[C@H](C)[C@H](NC(=O)[C@H](CC(=O)O)NC(=O)[C@H](C)NC(=O)[C@H](CCC(N)=O)NC(=O)[C@H](C)NC(=O)[C@H](CCCCN)NC(=O)[C@H](CC(C)C)NC(=O)[C@H](CCCNC(=N)N)NC(=O)[C@H](CCCNC(=N)N)NC(=O)[C@H](CCCNC(=N)N)NC(=O)[C@H](CCC(N)=O)NC(=O)[C@H](CCCNC(=N)N)NC(=O)[C@H](CCCNC(=N)N)NC(=O)[C@H](CCCCN)NC(=O)[C@H](CCCCN)NC(=O)[C@H](CCCNC(=N)N)NC(=O)CNC(=O)[C@H](Cc1ccc(O)cc1)NC(=O)[C@H](CSC1CC(=O)N(CCNC(=O)CCC2=[N+]3C(=Cc4c(C)cc(C)n4[B-]3(F)F)C=C2)C1=O)NC(C)=O)C(=O)N[C@@H](Cc1ccc(O)cc1)C(=O)N[C@@H](CCCCN)C(=O)N[C@@H](C)C(=O)N[C@@H](CCCNC(=N)N)C(=O)N[C@@H](Cc1ccccc1)C(=O)N[C@@H](CCC(N)=O)C(=O)N[C@@H](C)C(=O)N[C@@H](CCC(=O)O)C(=O)N[C@@H](CCCNC(=N)N)C(=O)N[C@@H](Cc1c[nH]cn1)C(=O)N[C@@H](C)C(=O)N[C@@H](CCCNC(=N)N)C(=O)N[C@@H](CCC(=O)O)C(=O)N[C@@H](CCCCN)C(N)=O (stereo partly shown) [BODIPY-TAT-NLM-DR] (Ac-C(BODIPYFLEthylmaleimide)YGRKKRRQRRRLKAQADIYKARFQAERHAREK-NH2),Cytotoxicity Cell morphology FACS,[1],no
same,Cytotoxicity Cell morphology Microscope,[1],no
Ac-C(Cam)RQIKIWFQNRRMKWKKLKAQADIYKADFQAERHAREKLVEKKEYLQEQLEQLQREFNKL-NH2 [Ant-LZ],Y79 cells died,[2],80%
Ac-C(Cam)RQIKIWFQNRRMKWKKSKGMQLEDLRQQLQQAEEALVAKQELIDKLKEEAEQHKIV-NH2 [Ant-CC2],Y79 cells died,[2],55%
Ant-CC2 (Mu): mutant Ant-CC2 devoid of BODIPY-labeling (SEQ ID NO: 4) (Ac-CRQIKIWFQNRRMKWKKSKGMQLEDLRQQGQQAEEAGVAKQELGDKLKEEAEQHKIV-NH2),Induction of Y79 cell death,[2],did not induce concentration cell death
Ant-LZ (Mu): mutant Ant-LZ devoid of BODIPY-labeling (SEQ ID NO: 8) (Ac-CRQIKIWFQNRRMKWKKLKAQADIYKADFQAERHAREKLVEKKEYSQEQLEQSQREFNKL-NH2),Induction of Y79 cell death,[2],not
Ant: antennapedia/penetratin internalization peptide without BODIPY label (SEQ ID NO: 1) (CRQIKIWFQNRRMKWKK) [reference compound],LPS-induced NF-κB activation in presence of peptide,[3],same level of NF-κB activation as the control
same,"Effect on Y79 cell survival, longer treatment",[2]; 16 hours (FIG. 8C),did not affect cell survival
"B-CRQIKIWFQNRRMKWKK ({BODIPY}-CRQIKIWFQNRRMKWKK; reading uncertain) [BODIPY-Ant, reference compound]",LPS-induced NF-κB activation in presence of peptide,[3],same level of NF-κB activation as the control
B-CRQIKIWFQNRRMKWKKLKAQADIYKADFQAERHAREKLVEKKEYLQEQLEQLQREFNKL (C(BODIPY)RQIKIWFQNRRMKWKKLKAQADIYKADFQAERHAREKLVEKKEYLQEQLEQLQREFNKL-NH2; not fully specified (N-terminus); reading uncertain) [BODIPY-Ant-LZ (WT)],LPS-induced NF-κB activation in presence of peptide,[3],decreased significantly
same,LPS-induced NF-κB activation in presence of peptide,[3]; listed as “Leucine zipper” peptide,completely eliminates cell response
B-CRQIKIWFQNRRMKWKKLKAQADIYKADFQAERHAREKLVEKKEYSQEQLEQSQREFNKL (C(BODIPY)RQIKIWFQNRRMKWKKLKAQADIYKADFQAERHAREKLVEKKEYSQEQLEQSQREFNKL-NH2; not fully specified (N-terminus); printed as B-CRQIKIWFQNRRMKWKKLKAQADIYKADFQAERHAREKLVEKKEYSQEQLEQSQREFNKL; reading uncertain) [BODIPY-Ant-LZ (Mu)],Inhibition of NF-κB activation compared to the control,[4],15%
LKAQADIYKADFQAERHAREKLVEKKEYLQEQLEQLQREFNKL [LZ (WT)],"LPS-induced NF-κB activation, peptides not fused to antennapedia","[3]; peptide 2 h, LPS 3 h, 70Z3-C3 cells (FIG. 3D)",same level of activation as the control
same,Oligomeric state by gel filtration,[5],dimer
LKAQADIYKADFQAERHAREKLVEKKEYSQEQLEQSQREFNKL [LZ (Mu)],Oligomeric state by gel filtration,[5],still detected dimerization
SKGMQLEDLRQQGQQAEEAGVAKQELGDKLKEEAEQHKIV [CC2 (Mu)],Oligomeric state by gel filtration,[5],lost its ability to oligomerize
